PMC9959048, “Lipidation of Naturally Occurring α-Helical Antimicrobial Peptides as a Promising Strategy for Drug Design” (International Journal of Molecular Sciences, 2023)
Values after ≈ are worked out from the molar mass of the structure shown. Read-outs that look alike come from different tables or passages of the source. Residues, ends and D or L forms follow the SMILES beside them. *: point of attachment. Palmitoyl = CCCCCCCCCCCCCCCC(=O)*; Myristoyl = CCCCCCCCCCCCCC(=O)*; Lauroyl = CCCCCCCCCCCC(=O)*; Decanoyl = CCCCCCCCCC(=O)*

What was measured:
S. aureus PCM2054 = format: cell-based, Staphylococcus aureus
Description: (§1) The evaluation of the antimicrobial activity of the synthesized lipopeptides was performed against the following reference bacterial and fungal strains: Staphylococcus aureus PCM 1650, Staphylococcus aureus PCM 2054, Staphylococcus epidermidis PCM 521, Staphylococcus epidermidis PCM 2118, Escherichia coli PCM 2057, Candida albicans PCM 2566, Candida glabrata CCM 8270, Candida krusei CCM 8271, Candida parapsilosis CCM 8260.
(§2) For the initial cultivation of the bacteria and fungi, Luria-Bertani broth (LB, Biomaxima, Lublin, Poland) and Sabouraud Dextrose broth (SB, Biomaxima, Lublin, Poland) were used, respectively. Antimicrobial properties of the compounds were analyzed through the determination of MIC (minimal inhibitory concentrations) by my means of the serial micro-dilution technique according to the guidelines of Clinical & Laboratory Standard Institute (CLSI) established for aerobic bacteria and yeasts.
(§3) According to the procedures, Mueller–Hinton broth (MHB) was used as the working medium for the analysis of the bacterial susceptibility, while RPMI-1640 (with L-glutamine, without sodium bicarbonate) growth medium buffered with MOPS (morpholinepropanesulfonic acid) and supplemented with 2% glucose was used for the experiments with the fungi.
(§4) The experiments were carried out for 24 h at 37 and 35 °C for the bacteria and fungi, respectively. Then, the absorbance was measured at 600 nm for each well of the 96-well plate using a microplate reader (Sunrise TM, Tecan Trading AG, Männedorf, Switzerland). Based on the obtained results, the degree of inhibition of the growth of microorganisms (expressed in %) in the presence of the tested compounds range was determined with respect to the control probes. Inoculated wells without peptide were treated as a positive control (100% growth), and the wells containing working medium only were defined as a negative control (0% growth). All measurements were repeated in triplicate.

C. albicans PCM2566 = format: cell-based, Candida albicans
Description: as §1, §2, §3, §4

S. epidermidis PCM521 = format: cell-based, Staphylococcus epidermidis
Description: as §1, §2, §3, §4

S. epidermidis PCM2118 = format: cell-based, Staphylococcus epidermidis
Description: as §1, §2, §3, §4

C. parapsilosis CCM 8260 = format: cell-based, Candida parapsilosis
Description: as §1, §2, §3, §4

C. krusei CCM8271 = format: cell-based, Candida krusei
Description: as §1, §2, §3, §4

E. coli PCM2057 = format: cell-based, Escherichia coli
Description: as §1, §2, §3, §4

C. glabrata CCM8270 = format: cell-based, Candida glabrata
Description: as §1, §2, §3, §4

S. aureus PCM1650 = format: cell-based, Staphylococcus aureus; conditions: PCM1650, 24 h
Description: as §1, §2, §3, §4

[1] = Mueller–Hinton broth, inoculum 5 × 10^5 CFU/mL, 24 h, 37 °C, absorbance 600 nm, triplicate
[2] = RPMI-1640 with MOPS and 2% glucose, inoculum 5 × 10^3 CFU/mL, 24 h, 35 °C, absorbance 600 nm, triplicate

| SMILES | MIC, S. aureus PCM2054 (S. aureus PCM2054; [1]) | MIC, C. albicans PCM2566 (C. albicans PCM2566; [2]) | MIC, S. epidermidis PCM521 (S. epidermidis PCM521; [1]) | MIC, S. epidermidis PCM2118 (S. epidermidis PCM2118; [1]) | MIC, C. parapsilosis CCM 8260 (C. parapsilosis CCM 8260; [2]) | MIC, C. krusei CCM8271 (C. krusei CCM8271; [2]) | MIC, E. coli PCM2057 (E. coli PCM2057; [1]) | MIC, C. glabrata CCM8270 (C. glabrata CCM8270; [2]) | MIC, S. aureus PCM2054 (S. aureus PCM2054; PCM2054, 24 h) | MIC, C. albicans PCM2566 (C. albicans PCM2566; PCM2566, 24 h) | MIC, S. epidermidis PCM521 (S. epidermidis PCM521; PCM521, 24 h) | MIC, S. epidermidis PCM2118 (S. epidermidis PCM2118; PCM2118, 24 h) | MIC, C. parapsilosis CCM 8260 (C. parapsilosis CCM 8260; CCM 8260, 24 h) | MIC, C. krusei CCM8271 (C. krusei CCM8271; CCM8271, 24 h) | MIC, E. coli PCM2057 (E. coli PCM2057; PCM2057, 24 h) | MIC, C. glabrata CCM8270 (C. glabrata CCM8270; CCM8270, 24 h) | MIC, S. aureus PCM1650 (S. aureus PCM1650) |
| --- | --- | --- | --- | --- | --- | --- | --- | --- | --- | --- | --- | --- | --- | --- | --- | --- | --- |
| CCCCCCCCCCCC(=O)N[C@@H](CCCCN)C(=O)N[C@@H](CCCNC(=N)N)C(=O)N[C@@H](Cc1ccccc1)C(=O)N[C@@H](CCCCN)C(=O)N[C@@H](CCCCN)C(=O)N[C@@H](Cc1ccccc1)C(=O)N[C@@H](Cc1ccccc1)C(=O)N[C@@H](CCCCN)C(=O)N[C@@H](CCCCN)C(=O)N[C@@H](CC(C)C)C(=O)N[C@@H](CCCCN)C(N)=O [C12-ATRA-1] (Lauroyl-KRFKKFFKKLK-NH2) | 3.9 mg/L (≈ 2.32 µM) | 2.5 mg/L (≈ 1.49 µM) | 3.13 mg/L (≈ 1.86 µM) | 3.13 mg/L (≈ 1.86 µM) | 12.5 mg/L (≈ 7.44 µM) | 2.5 mg/L (≈ 1.49 µM) | 31.25 mg/L (≈ 18.6 µM) | 6.25 mg/L (≈ 3.72 µM) | – | – | – | – | – | – | – | – | – |
| CCCCCCCCCCCCCCCC(=O)N[C@H](C(=O)N[C@@H](CCCCN)C(=O)N[C@@H](CCCCN)C(=O)N[C@H](C(=O)N[C@@H](CC(C)C)C(=O)N[C@@H](CO)C(=O)N[C@@H](CCCCN)C(=O)N[C@H](C(=O)N[C@@H](CCCCN)C(=O)N[C@@H](CCCCN)C(=O)N[C@@H](CC(C)C)C(=O)N[C@@H](CC(C)C)C(=O)N[C@@H](CCCCN)C(N)=O)[C@@H](C)CC)[C@@H](C)CC)[C@@H](C)CC [C16-LK6] (Palmitoyl-IKKILSKIKKLLK-NH2) | – | – | – | – | – | – | – | – | >50 mg/L | 6.25 mg/L (≈ 3.49 µM) | 50 mg/L (≈ 27.9 µM) | 50 mg/L (≈ 27.9 µM) | 50 mg/L (≈ 27.9 µM) | 25 mg/L (≈ 14 µM) | >50 mg/L | >50 mg/L | – |
| CC[C@H](C)[C@H](N)C(=O)N[C@@H](CCCCN)C(=O)N[C@@H](CCCCN)C(=O)N[C@H](C(=O)N[C@@H](CC(C)C)C(=O)N[C@@H](CO)C(=O)N[C@@H](CCCCN)C(=O)N[C@H](C(=O)N[C@@H](CCCCN)C(=O)N[C@@H](CCCCN)C(=O)N[C@@H](CC(C)C)C(=O)N[C@@H](CC(C)C)C(=O)N[C@@H](CCCCN)C(N)=O)[C@@H](C)CC)[C@@H](C)CC [LK6, reference compound] (H-IKKILSKIKKLLK-NH2) | – | – | – | – | – | – | – | – | >50 mg/L | 50 mg/L (≈ 32.2 µM) | 6.25 mg/L (≈ 4.03 µM) | 6.25 mg/L (≈ 4.03 µM) | 12.5 mg/L (≈ 8.05 µM) | 12.5 mg/L (≈ 8.05 µM) | >50 mg/L | 31.25 mg/L (≈ 20.1 µM) | – |
| CCCCCCCCCCCC(=O)N[C@H](C(=O)N[C@@H](CCCCN)C(=O)N[C@@H](CCCCN)C(=O)N[C@H](C(=O)N[C@@H](CC(C)C)C(=O)N[C@@H](CO)C(=O)N[C@@H](CCCCN)C(=O)N[C@H](C(=O)N[C@@H](CCCCN)C(=O)N[C@@H](CCCCN)C(=O)N[C@@H](CC(C)C)C(=O)N[C@@H](CC(C)C)C(=O)N[C@@H](CCCCN)C(N)=O)[C@@H](C)CC)[C@@H](C)CC)[C@@H](C)CC [C12-LK6] (Lauroyl-IKKILSKIKKLLK-NH2) | – | – | – | – | – | – | – | – | 50 mg/L (≈ 28.8 µM) | 6.25 mg/L (≈ 3.6 µM) | 25 mg/L (≈ 14.4 µM) | 6.25 mg/L (≈ 3.6 µM) | 6.25 mg/L (≈ 3.6 µM) | 6.25 mg/L (≈ 3.6 µM) | >50 mg/L | 3.13 mg/L (≈ 1.8 µM) | 25 mg/L (≈ 14.4 µM) |
| CCCCCCCCCC(=O)N[C@H](C(=O)N[C@@H](CCCCN)C(=O)N[C@@H](CCCCN)C(=O)N[C@H](C(=O)N[C@@H](CC(C)C)C(=O)N[C@@H](CO)C(=O)N[C@@H](CCCCN)C(=O)N[C@H](C(=O)N[C@@H](CCCCN)C(=O)N[C@@H](CCCCN)C(=O)N[C@@H](CC(C)C)C(=O)N[C@@H](CC(C)C)C(=O)N[C@@H](CCCCN)C(N)=O)[C@@H](C)CC)[C@@H](C)CC)[C@@H](C)CC [C10-LK6] (Decanoyl-IKKILSKIKKLLK-NH2) | – | – | – | – | – | – | – | – | 50 mg/L (≈ 29.3 µM) | 6.25 mg/L (≈ 3.66 µM) | 6.25 mg/L (≈ 3.66 µM) | 6.25 mg/L (≈ 3.66 µM) | 6.25 mg/L (≈ 3.66 µM) | 6.25 mg/L (≈ 3.66 µM) | >50 mg/L | 6.25 mg/L (≈ 3.66 µM) | – |
| CCCCCCCCCCCCCC(=O)N[C@H](C(=O)N[C@@H](CC(N)=O)C(=O)N[C@@H](Cc1c[nH]c2ccccc12)C(=O)N[C@@H](CCCCN)C(=O)N[C@@H](CCCCN)C(=O)N[C@H](C(=O)N[C@@H](CC(C)C)C(=O)NCC(=O)N[C@@H](CCCCN)C(=O)N[C@H](C(=O)N[C@H](C(=O)N[C@@H](CCCCN)C(=O)N[C@H](C(=O)N[C@@H](C)C(=O)N[C@@H](CCCCN)C(N)=O)C(C)C)[C@@H](C)CC)[C@@H](C)CC)C(C)C)C(C)C [C14-LL-I] (Myristoyl-VNWKKVLGKIIKVAK-NH2) | >50 mg/L | >50 mg/L | 12.5 mg/L (≈ 6.46 µM) | 12.5 mg/L (≈ 6.46 µM) | 3.13 mg/L (≈ 1.62 µM) | 12.5 mg/L (≈ 6.46 µM) | >50 mg/L | 12.5 mg/L (≈ 6.46 µM) | – | – | – | – | – | – | – | – | – |
| CCCCCCCCCCCCCCCC(=O)N[C@H](C(=O)N[C@@H](CC(N)=O)C(=O)N[C@@H](Cc1c[nH]c2ccccc12)C(=O)N[C@@H](CCCCN)C(=O)N[C@@H](CCCCN)C(=O)N[C@H](C(=O)N[C@@H](CC(C)C)C(=O)NCC(=O)N[C@@H](CCCCN)C(=O)N[C@H](C(=O)N[C@H](C(=O)N[C@@H](CCCCN)C(=O)N[C@H](C(=O)N[C@@H](C)C(=O)N[C@@H](CCCCN)C(N)=O)C(C)C)[C@@H](C)CC)[C@@H](C)CC)C(C)C)C(C)C [C16-LL-I] (Palmitoyl-VNWKKVLGKIIKVAK-NH2) | >50 mg/L | >50 mg/L | 25 mg/L (≈ 12.7 µM) | 25 mg/L (≈ 12.7 µM) | 12.5 mg/L (≈ 6.37 µM) | >50 mg/L | >50 mg/L | >50 mg/L | – | – | – | – | – | – | – | – | – |
| CCCCCCCCCCCCCC(=O)N[C@H](C(=O)N[C@@H](CCCCN)C(=O)N[C@@H](CCCCN)C(=O)N[C@H](C(=O)N[C@@H](CC(C)C)C(=O)N[C@@H](CO)C(=O)N[C@@H](CCCCN)C(=O)N[C@H](C(=O)N[C@@H](CCCCN)C(=O)N[C@@H](CCCCN)C(=O)N[C@@H](CC(C)C)C(=O)N[C@@H](CC(C)C)C(=O)N[C@@H](CCCCN)C(N)=O)[C@@H](C)CC)[C@@H](C)CC)[C@@H](C)CC [C14-LK6] (Myristoyl-IKKILSKIKKLLK-NH2) | – | – | – | – | – | – | – | – | 50 mg/L (≈ 28.4 µM) | 6.25 mg/L (≈ 3.55 µM) | 25 mg/L (≈ 14.2 µM) | 25 mg/L (≈ 14.2 µM) | 6.25 mg/L (≈ 3.55 µM) | 6.25 mg/L (≈ 3.55 µM) | >50 mg/L | 12.5 mg/L (≈ 7.09 µM) | – |
